# Entries after “also recorded” stand apart in the source; their conditions may differ. Where a name gives a salt, the structure may show the parent alone. Read-outs that look alike come from different tables or passages of the source.
# Columns and labels:
# [1] = tested on: iPSC-derived cortical glutamatergic neurons; assay: Neurite outgrowth assay in iPSC-derived neurons; type: cell-based, human; settings: for IC50: Homo sapiens, Neuron, 24 h, read-out: IC50 of neurite outgrowth inhibition
# [2] = tested on: RAR pathway, RARE-luc C3RL4 cells; assay: RAR-luc reporter gene assay; type: cell-based; settings: 6 h
# [3] = tested on: WNT pathway, TCF/LEF-luc HEK293 cells; assay: WNT-luc reporter gene assay; type: cell-based, human
# [4] = tested on: TGFβ/SMAD signaling (SMAD2/3/4 complex), SBE-bla HEK 293T cells; assay: SBE-bla antagonist assay; type: cell-based, human; settings: for SBE Antagonist Efficacy: activity %, TGFβ1 only = 0, DMSO = -100
# [5] = tested on: SHH pathway, Gli1-luc NIH/3T3 cells; assay: SHH-luc reporter gene assay; type: cell-based
# [6] = tested on: TGFβ, WNT, RAR and SHH pathways; assay: Profile across developmental pathways; type: cell-based; settings: sodium dimethyldithiocarbamate at 10 μM
# [7] = tested on: SMAD2/3/4 signaling, SBE-bla HEK 293T cells; assay: SBE-bla assay, activation by native TGFR ligands; type: cell-based, human; settings: Figure 2A
# [8] = Homo sapiens, HEK-293T, read-out: IC50 in SBE-bla assay, primary screening
compound,measurement,setting,value
Nc1ncn([C@@H]2O[C@H](CO)[C@@H](O)[C@H]2O)c(=O)n1 [5-Azacitidine],"inhibition of neurite outgrowth, in words","[1]; 24 h treatment, Figure 5D",inhibited neurite outgrowth
CN1C(=O)N(c2ccccc2Br)Cc2cnc(Nc3ccc4c(c3)OCC(CO)O4)nc21 (stereo not drawn) [PharmaGSID_48519],"inhibition of neurite outgrowth, in words",[1],did not inhibit neurite outgrowth; also recorded: didn’t inhibit neurite outgrowth
CCCCN(CCCC)C(=S)[S-].[Na+] [Sodium dibutylcarbamodithioate],RAR Antagonist Efficacy,[2]; retinol stimulated,Inactive
same,RAR Antagonist IC50,[2]; retinol stimulated,Inactive
same,WNT Antagonist Efficacy,"[3]; WNT-3a stimulated, 24 h",Inactive
same,WNT Antagonist IC50,"[3]; WNT-3a stimulated, 24 h",Inactive
same,SBE Antagonist IC50,"[4]; TGFβ1-induced SBE-bla activity, HEK 293T, 5 h, Tables 2 and 3",Inactive
same,SBE Antagonist Efficacy,[4],Inactive
same,SHH Antagonist Efficacy,"[5]; conditioned medium, 24 h",Inactive
same,SHH Antagonist IC50,"[5]; conditioned medium, 24 h",Inactive
same,"inhibition of developmental pathways, in words",[6],inactive
CCN(CC)C(=S)S [Sodium diethyldithiocarbamate],IC50,[2]; read-out: RAR Antagonist IC50,15.3 µM
same,RAR Antagonist Efficacy,[2]; retinol stimulated,−113.16%
same,IC50,"[3]; Homo sapiens, HEK293, 24 h, read-out: WNT Antagonist IC50",3.69 µM
same,WNT Antagonist Efficacy,"[3]; WNT-3a stimulated, 24 h",−74.76%
same,IC50,"[4]; Homo sapiens, HEK-293T, 5 h, read-out: SBE Antagonist IC50",11500 nM
same,SBE Antagonist Efficacy,[4],−58.53%
same,IC50,"[5]; Mus musculus, NIH3T3, 24 h, read-out: SHH Antagonist IC50",8.92 µM
same,SHH Antagonist Efficacy,"[5]; conditioned medium, 24 h",−96.63%
CN(C)C(=S)SSC(=S)N(C)C [Thiram],IC50,[1],100 nM
CC(C)C[C@H](NC(=O)[C@H](Cc1ccccc1)NC(=O)c1cnccn1)B(O)O [bortezomib],"inhibition of neurite outgrowth, in words","[1]; 24 h treatment, Figure 5D",inhibited neurite outgrowth
C=CC(=O)Nc1cc2c(Nc3ccc(F)c(Cl)c3)ncnc2cc1OCCCN1CCOCC1 [canertinib],"inhibition of neurite outgrowth, in words","[1]; 24 h treatment, Figure 5D",inhibited neurite outgrowth
CN(C)C(=S)[S-].CN(C)C(=S)[S-].[Cu+2] [copper dimethyl dithiocarbamates],IC50,"[4]; read-out: IC50 in SBE-bla assay, DTC cluster k35.18, Figure 3B",1620 nM
Cc1nc(Nc2ncc(C(=O)Nc3c(C)cccc3Cl)s2)cc(N2CCN(CCO)CC2)n1 [dasatinib],IC50,[4]; [8],260 nM
same,"inhibition of neurite outgrowth, in words","[1]; 24 h treatment, Figure 5D",did not inhibit neurite outgrowth; also recorded: didn’t inhibit neurite outgrowth
"S=C(SSC(=S)N1CCCCC1)N1CCCCC1 [dicyclopentamethylenethiuram, dicyclopentamethylenethiuram disulfide]",IC50,"[4]; Homo sapiens, HEK-293T, read-out: IC50 in SBE-bla assay, DTC cluster k35.18",580 nM
same,IC50,[1],820 nM
CCN(CC)C(=S)SSC(=S)N(CC)CC [disulfiram],IC50,[1],180 nM
"CN1CC[C@H](c2c(O)cc(O)c3c(=O)cc(-c4ccccc4Cl)oc23)[C@H](O)C1 [flavopiridol hydrochloride, reference compound]",IC50,[4]; [8],20 nM
same,"inhibition of neurite outgrowth, in words","[1]; 24 h treatment, Figure 5D",inhibited neurite outgrowth
CC(=O)[C@]1(O)Cc2c(O)c3c(c(O)c2[C@@H](O[C@H]2C[C@H](N)[C@H](O)[C@H](C)O2)C1)C(=O)c1ccccc1C3=O [idarubicin hydrochloride],"inhibition of neurite outgrowth, in words","[1]; 24 h treatment, Figure 5D",inhibited neurite outgrowth
COc1cccc2c1C(=O)c1c(O)c3c(c(O)c1C2=O)C[C@@](O)(C(=O)CO)C[C@@H]3O[C@H]1C[C@H](N2CCO[C@H](OC)C2)[C@H](O)[C@H](C)O1 [nemorubicin],"inhibition of neurite outgrowth, in words",[1],inhibited neurite outgrowth
[F][Sn]([c]1ccccc1)([c]1ccccc1)[c]1ccccc1 [triphenyltin fluoride],fold less cytotoxic in SBE-bla HEK 293T cells than in NSCs,SBE-bla HEK 293T cells,10 fold
CC[C@]1(O)C[C@@H]2CN(CCc3c([nH]c4ccccc34)[C@@](C(=O)OC)(c3cc4c(cc3OC)N(C)[C@H]3[C@@](O)(C(=O)OC)[C@H](OC(C)=O)[C@]5(CC)C=CCN6CC[C@]43[C@@H]65)C2)C1 [vinblastine sulfate],"inhibition of neurite outgrowth, in words","[1]; 24 h treatment, Figure 5D",inhibited neurite outgrowth
"TGFβ1: native TGFR ligand, human TGFβ1",EC50 of activation of SBE-bla activity,[7],0.11 ng/mL
TGFβ2: native TGFR ligand,EC50 of activation of SBE-bla activity,[7],0.11 ng/mL
TGFβ3: native TGFR ligand,EC50 of activation of SBE-bla activity,[7],0.11 ng/mL
dibutyltin,fold less cytotoxic in SBE-bla HEK 293T cells than in NSCs,SBE-bla HEK 293T cells,10 fold
phenylmercuric acetate,fold less cytotoxic in SBE-bla HEK 293T cells than in NSCs,SBE-bla HEK 293T cells,10 fold

# Source: paper PMC7341485 (Chemical research in toxicology, 2019)
